Reference: ChEMBL document CHEMBL1201862, “PubChem BioAssay data set” (2004)
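Values below derive from 48-hour exposures of cells grown in 96-well plates, with endpoints linearly interpolated between the two concentrations bracketing the appropriate inhibition level. GI50 is the concentration that inhibits growth by half.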 Activity calls are given as the source filed them. No stated cut-off is given here; in the data, active = GI50 up to about 1.1 µM and inactive = higher.

Assays:
Assay in all cases: NCI anticancer screen, dose series, 48 h
[1] = tested on: CCRF-CEM
[2] = tested on: LOX IMVI
[3] = tested on: UACC-62
[4] = tested on: SR
[5] = tested on: MOLT-4
[6] = tested on: OVCAR-5
[7] = tested on: NCI-H460
[8] = tested on: OVCAR-4
[9] = tested on: HCC 2998
[10] = tested on: A498
[11] = tested on: OVCAR-8
[12] = tested on: Hs-578T
[13] = tested on: MCF7
[14] = tested on: NCI-H23
[15] = tested on: NCI-H522
[16] = tested on: A549
[17] = tested on: SNB-19
[18] = tested on: HOP-92
[19] = tested on: HCT-116
[20] = tested on: DMS-114

SMILES	GI50 [1]	GI50 [2]	GI50 [3]	GI50 [4]	GI50 [5]	GI50 [6]	GI50 [7]	GI50 [8]	GI50 [9]	GI50 [10]	GI50 [11]	GI50 [12]	GI50 [13]	GI50 [14]	GI50 [15]	GI50 [16]	GI50 [17]	GI50 [18]	GI50 [19]	GI50 [20]
CC1(C)OC(CP(c2ccccc2)c2ccccc2)C(CP(c2ccccc2)c2ccccc2)O1 (stereo unspecified)	0.794 µM (active)	0.224 µM (active)	1.97 µM (inactive)	0.552 µM (active)	0.254 µM (active)	2.25 µM (inactive)	0.417 µM (active)	0.986 µM (active)	0.774 µM (active)	3.39 µM (inactive)	0.741 µM (active)	2.02 µM (inactive)	0.0869 µM (active)	0.485 µM (active)	0.298 µM (active)	0.27 µM (active)	0.601 µM (active)	2.36 µM (inactive)	0.165 µM (active)	
c1ccc2c(c1)N=c1ccccc1=P21c2ccccc2Nc2ccccc21	0.174 µM (active)	0.953 µM (active)	0.611 µM (active)	0.31 µM (active)	0.3 µM (active)	0.421 µM (active)	0.186 µM (active)	0.601 µM (active)	0.598 µM (active)	0.581 µM (active)	0.521 µM (active)	0.382 µM (active)	0.457 µM (active)	0.304 µM (active)	0.216 µM (active)	0.232 µM (active)	0.325 µM (active)	0.332 µM (active)	0.242 µM (active)	
NC(=O)C(Nc1ccc(Cl)cc1)c1cc2cc(Br)ccc2nc1Cl (stereo unspecified)	23.8 µM (inactive)	> 50 µM (inactive)	> 50 µM (inactive)	18.9 µM (inactive)	19.5 µM (inactive)	> 50 µM (inactive)	> 50 µM (inactive)	> 50 µM (inactive)	> 50 µM (inactive)	> 50 µM (inactive)	> 50 µM (inactive)	> 50 µM (inactive)	40.8 µM (inactive)	> 50 µM (inactive)	31.5 µM (inactive)	30.2 µM (inactive)	> 50 µM (inactive)	17.7 µM (inactive)	> 50 µM (inactive)	
O=C(CSc1nnc(Cc2ccccc2)o1)Nc1ccccc1Cl	> 100 µM (inactive)	> 100 µM (inactive)	> 100 µM (inactive)		> 100 µM (inactive)	> 100 µM (inactive)	> 100 µM (inactive)	> 100 µM (inactive)	> 100 µM (inactive)	> 100 µM (inactive)	> 100 µM (inactive)			> 100 µM (inactive)	> 100 µM (inactive)	> 100 µM (inactive)	> 100 µM (inactive)		> 100 µM (inactive)	> 100 µM (inactive)
N#Cc1c(-c2ccc([N+](=O)[O-])cc2)cc(-c2ccc(Nc3ccnc4cc(Cl)ccc34)cc2)nc1N	1.11 µM (active)	1.45 µM (inactive)	26.7 µM (inactive)	0.399 µM (active)	1.81 µM (inactive)	30.8 µM (inactive)	7.24 µM (inactive)	2.82 µM (inactive)	11.4 µM (inactive)	26.2 µM (inactive)	2.19 µM (inactive)	11.6 µM (inactive)	1.61 µM (inactive)	25.2 µM (inactive)	3.85 µM (inactive)	3.98 µM (inactive)	25.2 µM (inactive)	29.7 µM (inactive)	2.3 µM (inactive)	
Cc1cc(=O)oc2c(CN3CCCCC3)c(O)ccc12	> 100 µM (inactive)	> 100 µM (inactive)	> 100 µM (inactive)	> 100 µM (inactive)	> 100 µM (inactive)	> 100 µM (inactive)	> 100 µM (inactive)	> 100 µM (inactive)	> 100 µM (inactive)	> 100 µM (inactive)	> 100 µM (inactive)	> 100 µM (inactive)	> 100 µM (inactive)	> 100 µM (inactive)	> 100 µM (inactive)	> 100 µM (inactive)	> 100 µM (inactive)	> 100 µM (inactive)	> 100 µM (inactive)	
C[C@]12CC[C@H]3[C@@H](CC=C4C[C@@H](N5CCCC5)CC[C@@]43C)[C@@H]1C[C@H](N1CCCCC1)[C@@H]2O	> 100 µM (inactive)	33.3 µM (inactive)	> 100 µM (inactive)	11.4 µM (inactive)	> 100 µM (inactive)	99.8 µM (inactive)	> 100 µM (inactive)	> 100 µM (inactive)	31.6 µM (inactive)	> 100 µM (inactive)	> 100 µM (inactive)	> 100 µM (inactive)	> 100 µM (inactive)	> 100 µM (inactive)	> 100 µM (inactive)	> 100 µM (inactive)	> 100 µM (inactive)	83.8 µM (inactive)	91.4 µM (inactive)	
O=[N+]([O-])c1ccc(OCCNc2cccc3ccccc23)cc1	38.2 µM (inactive)		> 100 µM (inactive)		20.3 µM (inactive)	> 100 µM (inactive)	77.6 µM (inactive)	> 100 µM (inactive)	64.6 µM (inactive)	> 100 µM (inactive)	65.3 µM (inactive)			30.6 µM (inactive)	> 100 µM (inactive)	60.1 µM (inactive)	> 100 µM (inactive)	94.2 µM (inactive)	42.8 µM (inactive)	52.8 µM (inactive)
